Reference: patent US20120022121A1, “INDOLES, DERIVATIVES AND ANALOGS THEREOF AND USES THEREFOR” (priority 2007, published 2012)

Columns and labels:
HEK293-MRP1 = assay: Growth inhibition assay (96 h); format: cell-based, human; conditions: HEK293-MRP1, MRP1 over-expressed, 96 h
HEK293-pcDNA3.1 = assay: Growth inhibition assay (96 h); format: cell-based, human; conditions: HEK293-pcDNA3.1 (control for MRP)
Excerpt: (§1) MTT (3-(4,5-dimethylthiazol-2-yl)-2,5-diphenyltetrazolium bromide) assay was also used for the leukemia cell lines. […] Cells were stained with SRB solution or MTT solution.

HEK293-pcDNA3-10 = assay: Growth inhibition assay (96 h); format: cell-based, human; conditions: HEK293-pcDNA3-10 (control for BCRP)
Excerpt: as §1

HEK293-MRP2 = assay: Growth inhibition assay (96 h); format: cell-based, human; conditions: HEK293-MRP2, MRP2 over-expressed, 96 h
HEK293-482R2 = assay: Growth inhibition assay (96 h); format: cell-based, human; conditions: HEK293-482R2, BCRP over-expressed, 96 h
PC-3 xenograft = assay: Antitumor activity in PC-3 xenograft; format: in vivo, Balb/c mice; conditions: 15 mg/kg/d for 4 days
Protocol: PC-3 tumor cells (2×10^6 cells) were suspended in saline and injected S.C. in both flanks of recipient mice (n=15). Tumor size was measured every other day and volume calculated as V=π/6*(length)x(width)^2 (75). […] Tumor growth and body weight was monitored every other day for the remainder of the study.

MCF-7 = MCF-7 cells, literature value (Rose 1995); cited from earlier work
K562 = assay: Cell viability MTT assay, 96 h; format: cell-based; conditions: Homo sapiens
Protocol: (§2) Cells were seeded in 96-well plates and incubated with different concentrations of compound 13, 68 or other anticancer drugs for 96 h. Cell viability was quantitated by MTT assay. […] Table 4 is a comparison of the IC50 of compounds 13, 68 and other anticancer drugs in the K562 and doxorubicin-resistant K562/DOX cell lines.

K562/Dox = assay: Cell viability MTT assay, 96 h; format: cell-based; conditions: Homo sapiens, doxorubicin-resistant
Protocol: as §2

HT-29 = HT-29 cells, literature value (Rose 1995); cited from earlier work

Row | Structure (SMILES) | IC50 (HEK293-MRP1) [nM] | IC50 (HEK293-pcDNA3.1) [nM] | IC50 (HEK293-pcDNA3-10) [nM] | IC50 (HEK293-MRP2) [nM] | IC50 (HEK293-482R2) [nM] | PC-3 xenograft growth (PC-3 xenograft) | body weight (PC-3 xenograft) | IC50 (MCF-7) [nM] | IC50 (K562) [nM] | IC50 (K562/Dox) [nM] | IC50 (HT-29) [nM]
1 | CCc1c2c(nc3ccc(O)cc13)-c1cc3c(c(=O)n1C2)COC(=O)[C@]3(O)CC [SN-38] | 17.7 ± 1 | 8.4 ± 1 | 2.9 ± 0.3 | 12.4 ± 1 | 94.3 ± 20 | – | – | – | – | – | –
2 | CC(=O)O[C@H]1C(=O)[C@@]2(C)[C@H]([C@H](OC(=O)c3ccccc3)[C@]3(O)C[C@H](OC(=O)[C@H](O)[C@@H](NC(=O)c4ccccc4)c4ccccc4)C(C)=C1C3(C)C)[C@]1(OC(C)=O)CO[C@@H]1C[C@@H]2O [Taxol] | – | – | – | – | – | potently suppressed | significant decreases in body weight | ~2.5 | 12.2 ± 0.2 | 1480 ± 480 | ~2.5
